≈ marks a conversion by molar mass, not a printed value.
Conditions: buffer; pH 7.4; 200.0 µM

Cc1ccccc1-c1nc(C#N)c(N2CCC(C)CC2)o1 and Cc1cc(C)c(C#N)c(SCc2ccccc2F)n1 cannot be ordered by solubility kinetic: under 0.2 µg/mL for the first, under 0.3 µg/mL for the second.

Compared with O=C(NCC1CCCO1)c1ccc(COc2ccccc2)cc1 (stereo not given), Cl.c1ccc(Cc2ccc(OCCn3ccnc3)cc2)cc1 is lower in solubility kinetic: over 46.7 µg/mL for the first, 41.3 µg/mL for the second.

Going from CCc1c(-c2ccccc2)nc2sc3c(c2c1N)CCCC3 to CC(Cl)C(=O)Nc1c2c(nn1-c1ccccc1)CSC2 (stereo not given), the solubility kinetic rises from under 0.3 µg/mL to over 46.2 µg/mL.

Going from NC(=O)/C(=C\c1ccco1)NC(=O)c1ccc(Br)o1 to O=C(N/C(=C\c1ccco1)C(=O)N1CCCC1CO)c1ccccc1 (stereo not given), the solubility kinetic rises from 42.9 µg/mL (≈ 132 µM) to over 51.1 µg/mL.

CC1(C)CC2(CCO1)C(Nc1ccccc1)=NC(=S)N2CC(N)=O (stereo not given) and CC(=O)C1=C(c2ccccc2)NC(=O)NC1c1ccc(O)c(Cl)c1 (stereo not given) cannot be ordered by solubility kinetic: over 52 µg/mL for the first, over 51.4 µg/mL for the second.

COc1ccc(CC(=O)NCC(C)(C)N2CCOCC2)cc1 and COc1ccc(N2CCN(CC(=O)Nc3ccc(C)cc3)CC2)cc1 cannot be ordered by solubility kinetic: over 46 µg/mL for the first, 46.8 µg/mL (≈ 138 µM) for the second.

NC(=[NH2+])SCc1[nH+]cccc1O.[Cl-] and NCC(=O)Nc1ccc(Br)cc1 are within 1.5-fold of each other in solubility kinetic: 35.3 µg/mL for the first, 27.6 µg/mL (≈ 120 µM) for the second.

First: O=C(NC(=S)N1CCCC1)c1ccc(Cl)cc1Cl
Second: Oc1ccc(C(=S)N2CCN(c3cccc(Cl)c3)CC2)cc1
The solubility kinetic of the first is 25-fold higher: 32.5 µg/mL (≈ 107 µM) for the first, 1.3 µg/mL (≈ 3.91 µM) for the second.

CC(=O)N1CCN(CC(O)Cn2c3ccccc3c3ccccc32)CC1 (stereo not given) and COc1cn(-c2ccccc2)nc1C(=O)NCc1ccccc1 cannot be ordered by solubility kinetic: over 52.7 µg/mL for the first, over 46.1 µg/mL for the second.

Going from COc1cccc(C2(O)CCN(CC(=O)NCC3CC3)CC2)c1 to O=C(NCC1CCCCC1)c1cccc([N+](=O)[O-])c1, the solubility kinetic falls from over 47.8 µg/mL to 20.2 µg/mL (≈ 77 µM).

Going from CNC(=S)N1CCn2cccc2C1c1cccnc1 (stereo not given) to O=C(NCc1cccnc1)C1CC(c2ccccc2Cl)=NO1 (stereo not given), the solubility kinetic rises from 40.8 µg/mL (≈ 150 µM) to over 47.4 µg/mL.

O=C(CN1C(=O)NC2(CCc3ccccc32)C1=O)NCc1cccc(C(F)(F)F)c1 (stereo not given) and CNC(=O)CN1C(=O)NC(c2ccccc2)(c2ccccc2)C1=O cannot be ordered by solubility kinetic: 55.2 µg/mL (≈ 132 µM) for the first, over 48.5 µg/mL for the second.

Compared with COc1ccc(Nc2ncnc3c2c(C)c(C)n3CCO)cc1, COc1ccccc1CNc1ncnc2sccc12 is lower in solubility kinetic: over 46.9 µg/mL for the first, 34.5 µg/mL (≈ 127 µM) for the second.

COc1ccc(-c2cc(C(=O)Nc3cccc(Cl)c3)no2)cc1 and COc1cc(NC(C)=O)ccc1NC(=O)c1cc2ccccc2o1 cannot be ordered by solubility kinetic: under 0.4 µg/mL for the first, under 0.3 µg/mL for the second.

CC12CCC(C(=O)Nc3cc(F)ccc3F)(CC1=O)C2(C)C (stereo not given) and CC(=O)c1cccc(NC(=S)Nc2ccc(F)cc2)c1 are within 1.5-fold of each other in solubility kinetic: 32 µg/mL (≈ 104 µM) for the first, 30.3 µg/mL (≈ 105 µM) for the second.

Compared with O=C(Nc1ccc(Cl)c(Cl)c1)NC1CCS(=O)(=O)C1 (stereo not given), CC(OC(=O)C1CCCCC1)C(=O)Nc1cccc(Cl)c1 (stereo not given) is 2-fold lower in solubility kinetic: 43.9 µg/mL (≈ 136 µM) for the first, 22.3 µg/mL (≈ 72 µM) for the second.

First: COC(=O)c1c(C)[nH]c(C=O)c1-c1ccccc1
Second: CCOC(=O)c1ccc(NC(=O)c2nc(SC)ncc2Cl)cc1
The solubility kinetic of the first is higher: over 36.5 µg/mL for the first, 1 µg/mL (≈ 2.84 µM) for the second.

Going from COC(=O)c1ccc(C(=O)Nc2ccc3c(c2)C(=O)NC3=O)cc1 to Cc1cccc(NC(=O)c2cccc(NC(=O)c3ccco3)c2)c1C, the solubility kinetic rises from under 0.3 µg/mL to 0.5 µg/mL (≈ 1.5 µM).

First: CCOC(=O)c1sc(=S)n(-c2ccc(C)cc2)c1N
Second: Cc1ccc(N2CN(Cc3ccco3)CNC2=S)cc1
The solubility kinetic of the first is 24-fold lower: 1.4 µg/mL (≈ 4.76 µM) for the first, 33.8 µg/mL (≈ 118 µM) for the second.

Going from COc1ccc(C(=O)Nc2ccc(C(=O)N3CCCCC3C)cc2)c(OC)c1OC (stereo not given) to COc1cccc(OC)c1OCC(=O)Nc1ccc(S(=O)(=O)N2CCCC2)cc1, the solubility kinetic falls from over 61.9 µg/mL to 2.6 µg/mL (≈ 6.18 µM).

Going from CCN(CC)Cc1c(O)ccc2c(=O)c(-c3ccccc3Cl)coc12 to CN(Cc1ccccc1)C(=O)COC(=O)Cc1ccc(Cl)cc1, the solubility kinetic falls from over 53.7 µg/mL to 46.3 µg/mL (≈ 140 µM).

First: O=c1[nH]c(=S)n(C2CC2)c(O)c1C=NCC1CCCO1 (stereo not given)
Second: CC1CCCCN1C(=O)c1ccc(Br)o1 (stereo not given)
The solubility kinetic of the first is higher: over 44.3 µg/mL for the first, 37.7 µg/mL (≈ 139 µM) for the second.

First: Cc1noc(NC(=O)c2cccc(Cl)c2Cl)c1C#N
Second: CN(C)S(=O)(=O)c1cccc(NC(=O)c2cc(=O)[nH]c(=O)[nH]2)c1
The solubility kinetic of the first is lower: 43.1 µg/mL (≈ 146 µM) for the first, over 50.8 µg/mL for the second.

Going from Cc1ccc([N+](=O)[O-])cc1NC(=O)C[n+]1ccccc1.[Cl-] to COc1ccc([N+](=O)[O-])cc1NC(=O)COC(=O)c1ccccn1, the solubility kinetic falls from over 46.2 µg/mL to 20.9 µg/mL (≈ 63.1 µM).

COc1ccc(C(=O)NC(C)C2CC3CCC2C3)c(OC)c1 (stereo not given) and COc1ccc(NC(=S)Nc2cccc(C(C)=O)c2)cc1OC cannot be ordered by solubility kinetic: over 45.5 µg/mL for the first, over 49.6 µg/mL for the second.

CCCCCC(O)(CCN1CCCCC1)c1ccccc1.Cl (stereo not given) and CC(=O)OC(C(=O)NC1CCCCC1)c1ccccc1F (stereo not given) cannot be ordered by solubility kinetic: over 48.9 µg/mL for the first, over 44 µg/mL for the second.

First: O=C1NC(=O)C(Cc2cccc(Oc3ccccc3)c2)S1 (stereo not given)
Second: CNC(=S)/N=C(\Nc1ccc(C)cc1)c1ccccc1
The solubility kinetic of the first is higher: over 44.9 µg/mL for the first, 1.3 µg/mL (≈ 4.59 µM) for the second.

Going from O=c1c2[nH]c3ccc(F)cc3c2ncn1CCC1=CCCCC1 to O=C(OCC(=O)N1CCCC1=O)C1COc2ccccc2O1 (stereo not given), the solubility kinetic rises from under 0.2 µg/mL to over 45.8 µg/mL.

First: Cc1cc2nc3c(nc2cc1C)CCCC3
Second: Nc1nc(Cl)cc(N2CCCC2)n1
The solubility kinetic of the first is lower: 24.2 µg/mL (≈ 114 µM) for the first, over 29.8 µg/mL for the second.

Going from COCCCn1c(-c2cccs2)nc2nc3ccccc3nc21 to CC(=O)Nc1ccc(S(=O)(=O)N2CC(=O)NC(=O)C2)cc1, the solubility kinetic rises from 12.9 µg/mL (≈ 39.8 µM) to over 46.7 µg/mL.
